These results are taken from article PMC8589421, “Impact of Type II LRRK2 inhibitors on signaling and mitophagy” (Biochemical Journal, 2021).

For one experiment, the system named is T1, LRRK2 14-3-3 binding.
T1 construct: host or cells: HEK293
Kind of experiment: Analysis of 14-3-3 binding in HEK293 cells overexpressing wild-type LRRK2. The class given is cell-based, human. To be noted: 5 μM GZD-824 for 4 h, 1 μM GSK3357679A. How it is done: This was undertaken as described previously. Briefly, wild-type FLAG-LRRK2 was transiently expressed in HEK293 cells with HA-Rab29. Twenty-four hours post-transfection cells were lysed with lysis buffer and snap frozen. LRRK2 was immunoprecipitated from 4 mg of lysate using 20 μl anti-FLAG-M2 agarose beads (Sigma, #A2220) for 2 h in rotation at +4°C. Immunoprecipitates were washed once with lysis buffer supplemented with 0.5% (by vol) Nonidet P-40 (instead of Triton X-100) and 0.5 M NaCl followed by two washes. Samples were eluted in 2× LDS sample buffer (20 µl per 10 µl of resin) and heated at 70°C for 10 min. After centrifugation through 0.22 µm Spin X filter, the eluted protein was subjected to immunoblotting with the indicated antibodies. An amount of 10 μl of the final reaction mixture was needed for the detection of binding of endogenous 14-3-3 and 1 µl for detection of LRRK2.

Another experiment has as its target T2, Flag-LRRK2[G2019S] (Homo sapiens, UniProt Q5S007, G2019S).
T2 construct: towards full length wild type and G2019S pathogenic LRRK2 mutant in a biochemical assay; Flag (N); purchased ThermoFisher Scientific A15201
Kind of experiment: IC50 LRRK2 Nictide assay, G2019S. The class given is biochemical. To be noted: read-out: IC50 LRRK2 G2019S (100 µM ATP), Nictide peptide substrate, value ± SD.

The subject of experiment [1] is basal mitophagy, LRRK2[G2019S] MEFs. Kind of experiment: mito-QC basal mitophagy in LRRK2[G2019S] knock-in primary MEFs. The class given is cell-based, mouse. To be noted: 24 h, 30–300 nM GZD-824, GSK3357679A 100 nM positive control. How it is done:
(§1) To assess mitophagy, wild type, G2019S knock in, and LRRK2 knock out primary mouse embryonic fibroblasts (MEFs) were derived, from time-mated pregnant females at E12.5 as previously described. Briefly, cells were plated on glass coverslips and incubated with DMEM (Gibco, 11960-044) supplemented with 10% FBS, 2 mM L-Glutamine (Gibco, 2503-081), 1% non-essential amino acids (Gibco, 11140-035), 1% Antibiotics (Penicillin/Streptomycin 100 U/ml penicillin and 100 µg/ml streptomycin; Gibco), and 150 µM β-Mercaptoethanol (Gibco, 21985-023) at 37°C under a humidified 5% CO2 atmosphere. […] GSK3357679A 100 nM (Ding et al., in prep) was used as a positive control. At the end of the treatment, MEFs were briefly washed twice in DPBS (Gibco, 14190-094), and fixed in 3.7% Paraformaldehyde pH 7.00 (Sigma, P6148), 200 mM HEPES, for 20 min. Cells were then washed two times with DMEM, 10 mM HEPES, and then incubated for 10 min with DMEM, 10 mM HEPES. […] Images were acquired using a Nikon Eclipse Ti-S fluorescence microscope with a 63× objective. Images were analyzed using the mito-QC counter as previously described. Experiments were performed in 3–4 independent experiments and data was analyzed with a one-way ANOVA followed by a Dunnett's multiple comparison test using the GraphPad Prism software (version 8.4.3 (686)).

Experiment [2] relates to basal mitophagy, wild type MEFs. Kind of experiment: mito-QC basal mitophagy in wild-type primary MEFs. The class given is cell-based, mouse. To be noted: 24 h, 30–300 nM GZD-824, GSK3357679A 100 nM positive control. How it is done:
as §1

Experiment [3] has as its system Rab29 mediated relocalization of LRRK2 to the Golgi apparatus. Kind of experiment: Rab29 mediated recruitment of LRRK2 to the Golgi, immunofluorescence in HeLa cells. Type of experiment: cell-based, human. The settings on record: 5 μM GZD-824 or 1 μM GSK3357679A for 4 h. As for the experimental part:
HeLa cells were seeded on coverslips and transfected with the plasmid reported in each image 24 h before fixation. Following the treatments with the inhibitors described in figure legends, cells were washed twice in DPBS and fixed with 3.7% Paraformaldehyde pH 7.3 (Agar scientific, #R1026), 200 mM HEPES, for 20 min. Cells were then washed twice with DMEM, 20 mM HEPES, and then incubated for 10 min with DMEM, 10 mM HEPES. After two washes in DPBS, fixed cells were permeabilized with 0.2% (by vol) NP-40 in DPBS for 10 min. Cells were blocked using 1% (by mass) BSA in DPBS, then incubated for 1 h with primary antibodies diluted in 1% (by mass) BSA in DPBS, washed three times in 0.2% (by mass) BSA in DPBS, and incubated for 1 h with secondary antibodies. The coverslips were washed three times with 0.2% (by mass) BSA in PBS. Coverslips were washed once more in double distilled water and mounted on slides (VWR, #631-0909) using ProLong™ Diamond Antifade Mountant (ThermoFisher, #P36961). For localization of the Golgi compartment, Golgin-97 was stained with rabbit anti-GM97 (CST, #D8P2K) and visualized with goat anti-rabbit conjugated to Alexa Fluor 405 (Life Technologies, #P10994). HA-Rab29 was stained with mouse anti-HA (Abcam, clone HA.C5 #ab18181) and visualized with goat anti-mouse conjugated to Alexa Fluor 594 (Life Technologies, #A-11032). […]

Experiment [4] concerns LRRK2 Ser935 phosphorylation. Kind of experiment: Ser935 phosphorylation in HEK293 cells overexpressing wild-type LRRK2. Type of experiment: cell-based, human. To be noted: 1 μM. As for the experimental part:
Cell extracts were mixed with a quarter of a volume of NuPage LDS Sample buffer 4× Invitrogen and heated at 95°C for 5 min. […] At the end of electrophoresis, proteins were electrophoretically transferred onto the nitrocellulose membrane (GE Healthcare, Amersham Protran Supported 0.45 µm NC) at 100 V for 90 min on ice in the transfer buffer (48 mM Tris–HCl and 39 mM glycine supplemented with 20% methanol). Transferred membrane was blocked with 5% (w/v) skim milk powder dissolved in TBS-T [20 mM Tris–HCl, pH 7.5, 150 mM NaCl and 0.1% (v/v) Tween 20] at room temperature for 1 h. The membrane was typically cropped into three pieces, namely the ‘top piece’ (from the top of the membrane to 75 kDa), the ‘middle piece’ (between 75 and 30 kDa) and the ‘bottom piece’ (from 30 kDa to the bottom of the membrane). All primary antibodies were used at 1 μg/ml final concentration and incubated in TBS-T containing 5% (by mass) bovine serum albumin with exception of α-tubulin and GAPDH antibodies that were diluted 1 : 5000 and 1 : 2000, respectively. The top piece was incubated with the indicated rabbit anti-LRRK2 phosphorylation site antibody multiplexed with mouse anti-LRRK2 C-terminus total antibody. […] Protein bands were acquired via near infrared fluorescent detection using the Odyssey CLx imaging system and quantified using the Image Studio software. […]

The target of a further experiment is T3, wild-type Flag-LRRK2 (Homo sapiens, UniProt Q5S007).
T3 construct: Human recombinant full length wild-type Flag-LRRK2 (#A15198); Flag (N); purchased ThermoFisher Scientific A15198
T3 sequence (Q5S007 whole entry): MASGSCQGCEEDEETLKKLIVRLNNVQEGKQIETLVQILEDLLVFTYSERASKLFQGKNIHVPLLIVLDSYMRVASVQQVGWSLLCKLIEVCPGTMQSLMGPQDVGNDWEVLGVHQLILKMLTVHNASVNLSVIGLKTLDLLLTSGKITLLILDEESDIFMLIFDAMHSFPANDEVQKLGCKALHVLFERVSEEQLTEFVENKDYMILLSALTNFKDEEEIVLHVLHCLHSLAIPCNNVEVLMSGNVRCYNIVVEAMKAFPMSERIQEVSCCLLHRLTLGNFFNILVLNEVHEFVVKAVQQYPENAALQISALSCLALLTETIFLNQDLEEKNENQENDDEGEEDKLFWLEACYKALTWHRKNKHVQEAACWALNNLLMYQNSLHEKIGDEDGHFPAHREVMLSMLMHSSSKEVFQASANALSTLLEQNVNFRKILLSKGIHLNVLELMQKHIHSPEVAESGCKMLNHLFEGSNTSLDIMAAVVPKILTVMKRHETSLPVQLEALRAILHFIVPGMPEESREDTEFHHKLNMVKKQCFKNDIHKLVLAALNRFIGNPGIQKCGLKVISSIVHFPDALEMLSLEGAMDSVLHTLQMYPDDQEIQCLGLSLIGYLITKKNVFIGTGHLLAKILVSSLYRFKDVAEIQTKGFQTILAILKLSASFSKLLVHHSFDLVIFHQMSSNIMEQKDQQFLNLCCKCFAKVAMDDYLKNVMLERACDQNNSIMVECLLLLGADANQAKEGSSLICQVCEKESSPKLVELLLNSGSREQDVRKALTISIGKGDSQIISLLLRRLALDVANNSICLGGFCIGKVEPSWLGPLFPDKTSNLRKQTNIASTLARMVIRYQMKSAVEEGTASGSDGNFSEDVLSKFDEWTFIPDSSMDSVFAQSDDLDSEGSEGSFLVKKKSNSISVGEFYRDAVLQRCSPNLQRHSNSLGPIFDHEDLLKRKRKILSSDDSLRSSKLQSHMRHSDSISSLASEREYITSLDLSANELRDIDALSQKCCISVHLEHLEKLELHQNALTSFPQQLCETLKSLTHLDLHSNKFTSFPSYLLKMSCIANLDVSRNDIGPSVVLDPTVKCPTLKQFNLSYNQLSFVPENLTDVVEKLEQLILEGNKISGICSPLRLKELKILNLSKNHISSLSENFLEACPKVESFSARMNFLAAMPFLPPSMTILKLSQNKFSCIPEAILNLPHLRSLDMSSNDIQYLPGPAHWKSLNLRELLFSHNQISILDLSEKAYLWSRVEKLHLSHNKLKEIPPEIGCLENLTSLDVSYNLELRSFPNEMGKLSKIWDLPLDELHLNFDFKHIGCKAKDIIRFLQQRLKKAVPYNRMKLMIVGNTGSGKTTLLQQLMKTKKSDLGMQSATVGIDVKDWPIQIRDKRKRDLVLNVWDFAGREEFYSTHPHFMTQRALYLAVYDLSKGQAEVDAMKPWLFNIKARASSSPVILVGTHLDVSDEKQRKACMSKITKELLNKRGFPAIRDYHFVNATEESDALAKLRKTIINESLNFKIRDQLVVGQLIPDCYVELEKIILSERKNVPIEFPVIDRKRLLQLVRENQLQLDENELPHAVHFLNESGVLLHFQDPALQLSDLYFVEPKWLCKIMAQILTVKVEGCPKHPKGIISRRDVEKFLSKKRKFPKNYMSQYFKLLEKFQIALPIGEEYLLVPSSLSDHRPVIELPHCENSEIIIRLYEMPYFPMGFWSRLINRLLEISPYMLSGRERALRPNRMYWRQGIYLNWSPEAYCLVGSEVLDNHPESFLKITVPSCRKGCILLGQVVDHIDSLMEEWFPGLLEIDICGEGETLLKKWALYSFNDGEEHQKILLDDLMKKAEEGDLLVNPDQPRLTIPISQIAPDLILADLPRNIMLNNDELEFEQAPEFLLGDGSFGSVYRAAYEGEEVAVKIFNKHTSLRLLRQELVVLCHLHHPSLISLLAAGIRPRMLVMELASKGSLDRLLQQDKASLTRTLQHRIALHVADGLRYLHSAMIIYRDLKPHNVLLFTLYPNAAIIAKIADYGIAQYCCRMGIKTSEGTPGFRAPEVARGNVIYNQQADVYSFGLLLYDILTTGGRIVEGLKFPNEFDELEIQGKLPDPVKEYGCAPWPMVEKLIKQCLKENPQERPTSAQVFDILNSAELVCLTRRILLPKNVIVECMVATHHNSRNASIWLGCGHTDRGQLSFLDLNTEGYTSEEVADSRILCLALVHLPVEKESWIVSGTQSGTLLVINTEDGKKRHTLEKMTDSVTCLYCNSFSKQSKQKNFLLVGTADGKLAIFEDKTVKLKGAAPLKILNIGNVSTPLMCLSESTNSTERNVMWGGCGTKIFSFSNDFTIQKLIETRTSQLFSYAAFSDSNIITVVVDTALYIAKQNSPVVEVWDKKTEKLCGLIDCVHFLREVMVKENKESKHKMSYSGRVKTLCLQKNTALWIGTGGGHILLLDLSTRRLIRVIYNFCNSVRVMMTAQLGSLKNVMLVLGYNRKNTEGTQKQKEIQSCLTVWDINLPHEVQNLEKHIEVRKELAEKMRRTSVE
Put plainly: IC50 LRRK2 Nictide assay, wild type. Type of experiment: biochemical. As for the experimental part: (#A15201) purchased from ThermoFisher Scientific. […] After incubation for 30 min at room temperature, reactions were terminated by harvesting the whole reaction volume onto P81 phosphocellulose filter plate and immersion in 50 mM phosphoric acid. […] IC50 values were calculated with GraphPad Prism using non-linear regression analysis.

The subject of experiment [5] is Dundee panel of 140 protein kinases. Kind of experiment: Kinase profiling. The class given is biochemical. The source says:
[…] Results for each kinase are presented as the mean kinase activity ±S.D. for an assay undertaken in duplicate relative to a control kinase assay in which the inhibitor was omitted. Abbreviations and assay conditions used for each kinase are available (http://www.kinase-screen.mrc.ac.uk/services/premier-screen).

Experiment [6] deals with basal mitophagy, LRRK2 knock-out MEFs. Put plainly: mito-QC basal mitophagy in LRRK2 knock-out primary MEFs. Type of experiment: cell-based, mouse. To be noted: 24 h. How it is done: as §1

T2 sequence (Q5S007 whole entry G2019S): as the sequence (Q5S007 whole entry) above, with G2019S counted along it

Turning to GSK3357679A, in the experiment with LRRK2 14-3-3 binding, the “impact on 14-3-3 binding to LRRK2” value is recorded as “ablated”. In addition, the IC50 at Flag-LRRK2[G2019S] was found to be 0.34 nM; on wild-type Flag-LRRK2 (read-out: IC50 LRRK2 WT (100 µM ATP), Nictide peptide substrate, value ± SD), 0.3 nM. For the same substance, the “stimulation of basal mitophagy” value in [1] and in [2] was about 2 fold each time. In experiment [3], the “impact on Rab29 mediated recruitment of LRRK2 to the Golgi” value was “no impact”. Moreover, the “effect on Ser935 phosphorylation” value in experiment [4] is recorded as “ablated”. For the same substance, the “IC50 LRRK2 WT (100 µM ATP)” value against wild-type Flag-LRRK2 (Nictide peptide substrate, value ± SD) is recorded as “sub-nanomolar potency”. In addition, the “kinase selectivity (panel of 140 protein kinases)” value in experiment [5] is “highly selective”. For the same substance, the “impact on basal mitophagy in LRRK2 knock-out cells” value in experiment [6] is “neither GZD-824 or GSK3357679A impacted basal mitophagy”.
